Emission maximum data for 37 compounds are collected here from the Deep4Chem optical property database.

This data set is described as follows: solvent given as SMILES.

Each structure is given as a SMILES string. “And” between values parts separate entries of the source, which are not always exact repeats. Equal values may be shown once.

In the case of `COc1ccc2cc(-c3ccc([N+](=O)[O-])cc3)ccc2c1`, the emission maximum is recorded as 534 nm (in C1CCOC1), 647 nm (in CC#N), 573 nm (in ClC(Cl)Cl) and 591 nm (in ClCCl).
In turn, `CC(C)(C)c1ccc(-c2c(-c3cccc(N(c4ccccc4)c4ccccc4)c3)c(C#N)c(-c3cccc(N(c4ccccc4)c4ccccc4)c3)c(-c3ccc(C(C)(C)C)cc3)c2-c2ccc(C(C)(C)C)cc2)cc1` came in with an emission maximum (in C1CCOC1) of 448 nm.
Where the note is “in ClCCl”, `CCCCCCNC(=O)c1sc(-c2ccc(-c3cc(-c4ccc(C(C)(C)C)cc4)c(C(=O)NCCCCCC)s3)s2)cc1-c1ccc(C(C)(C)C)cc1` registered an emission maximum of 448 nm.
Turning to `COC(=O)c1cc(=O)n(C)c2cc(-c3cccc(OC)c3)sc12`, the emission maximum runs as follows: (in CC#N) 463 nm; (in ClCCl) 464 nm.
In turn, `COc1ccc2cc(-c3ccccc3CC#N)c(=O)oc2c1` yielded an emission maximum (in ClC(Cl)Cl) of 409 nm.
Take `COc1ccc(C#Cc2nc(C#Cc3ccc(OC)cc3)c(C#Cc3ccc(OC)cc3)c(C#Cc3ccc(OC)cc3)c2C#Cc2ccc(OC)cc2)cc1`: the emission maximum (in ClCCl) worked out at 459 nm.
On the same count and under the same terms, in the case of `c1cc2ccc3ccc(OP4(Oc5ccc6ccc7cccc8ccc5c6c78)=NP(Oc5ccc6ccc7cccc8ccc5c6c78)(Oc5ccc6ccc7cccc8ccc5c6c78)=NP(Oc5ccc6ccc7cccc8ccc5c6c78)(Oc5ccc6ccc7cccc8ccc5c6c78)=N4)c4ccc(c1)c2c34` it was 459 nm.
Regarding `COc1cc(OC)c2ccc(=O)oc2c1`, the emission maximum is recorded as 417 nm (in CC(C)O); 425 nm (in CCO); 390 nm (in CCOCC); 432 nm (in CO); 450 nm (in O).
For the compound `Cc1cc2ccccc2c2c1c1ccccc1n2-c1ccc(C#N)cc1`, the emission maximum (in ClCCl) is listed as 470 nm.
Compound `COc1cc2c3c4c(c5ccc(C(C)(C)C)cc5c5c(OC)c(OC)c(OC)c(c2c(OC)c1OC)c45)=[N+]1C3=Nc2c3c4cc(OC)c(OC)c(OC)c4c4c(OC)c(OC)c(OC)c5c6cc(C(C)(C)C)ccc6c(c3c54)n2[B-]1(F)F` returned an emission maximum (in Cc1ccccc1) of 873 nm.
Regarding `CCCCCCc1ccc2c3c(ccc2c1)O[B-](F)(F)[N+](c1cc([N+]2=Cc4c(ccc5cc(CCCCCC)ccc45)O[B-]2(F)F)cc([N+]2=Cc4c(ccc5cc(CCCCCC)ccc45)O[B-]2(F)F)c1)=C3`, the emission maximum is, setting by setting: (in C1CCOC1) 490 nm; (in CC#N) 495 nm; (in Cc1ccccc1) 493 nm; (in ClCCl) 495 nm.
For the compound `CCCCn1c(-c2ccc(-c3nnc(-c4ccc5ccccc5c4)o3)cc2)nc(-c2ccccc2)c1-c1ccccc1`, the emission maximum (in ClCCl) worked out at 445 nm.
Take `Cc1ccc(C(=O)/C=C2\C(=O)Nc3ccccc32)cc1C`: the emission maximum (in C1CCCCC1) was found to be 387 nm; the emission maximum (in C1COCCO1) was 397 nm; the emission maximum (in CC#N) was 413 nm; the emission maximum (in CC(C)(C)O) is reported as 400 nm; the emission maximum (in CC(C)O) is listed as 403 nm; the emission maximum (in CCCCCC) came to 387 nm. Also, the emission maximum (in CCCCO) amounted to 401 nm; the emission maximum (in CCOC(C)=O) was 395 nm; the emission maximum (in CN(C)C=O) worked out at 417 nm; the emission maximum (in CO) came to 399 nm; the emission maximum (in ClCCl) is reported as 418 nm; the emission maximum (in O) is listed as 409 nm.
Where the note is “in c1ccccc1”, `O=c1oc2ccccc2nc1-c1ccc(Cl)cc1` returned an emission maximum of 440 nm.
The compound `CC(C)(C)c1ccc2c(c1)c1cc(C(C)(C)C)ccc1n2-c1ccc(N(c2ccc(-c3ccc(-c4ccc(N(c5ccc(-n6c7ccc(C(C)(C)C)cc7c7cc(C(C)(C)C)ccc76)cc5)c5ccc(-n6c7ccc(C(C)(C)C)cc7c7cc(C(C)(C)C)ccc76)cc5)cc4)c4nsnc34)cc2)c2ccc(-n3c4ccc(C(C)(C)C)cc4c4cc(C(C)(C)C)ccc43)cc2)cc1` yielded an emission maximum (in ClCCl) of 600 nm.
On to `COc1ccc(/C=C(\C)c2nc3ccccc3s2)cc1`, for which the emission maximum is reported as 400 nm (in C1CCCCC1) and 420 nm (in CO).
For the setting “in CC#N”, `Cc1ccc2nc3c(=O)n(C)c(=O)nc-3n(C)c2c1` had an emission maximum of 518 nm.
On to `CC1CCC(=CS/C=C/c2ccc(-c3ccc(/C=C/SC=C4CCC(C)CC4)cc3)cc2)CC1` (centres undefined), for which, for the setting “in ClCCl”, the emission maximum came to 432 nm.
Take `CCCCCCc1ccc(-n2c3[n+](c4c5ccccc5c5ccccc5c42)[B-](C)(C)c2ccccc2-3)cc1`: the emission maximum by setting is: (in C1CCOC1) 384 nm; (in CC#N) 385 nm; (in Cc1ccccc1) 385 nm; (in ClCCl) 385 nm.
Compound `CCN(CC)c1ccc(-c2nc(Oc3ccc(-c4nc5cc([N+](=O)[O-])ccc5[nH]4)cc3)nc(Oc3ccc(-c4nc5cc([N+](=O)[O-])ccc5[nH]4)cc3)n2)cc1` returned an emission maximum (in CN(C)C=O) of 429 nm.
With `Cc1ccc(C2C(C#N)=C(N)n3c(=O)c4ccccc4c(=O)n32)cc1` (centres undefined), the emission maximum (in CS(C)=O) came out at 450 nm.
Regarding `O=C(c1ccc(N2c3ccccc3Oc3ccccc32)cc1)c1cccc(C(=O)c2ccc(N3c4ccccc4Oc4ccccc43)cc2)c1`, the emission maximum was 566 nm (in Cc1ccccc1) and 541 nm (in c1cc(-c2cccc(-n3c4ccccc4c4ccccc43)c2)cc(-n2c3ccccc3c3ccccc32)c1).
As to `CN(C)c1ccc(/C=C/c2nc3cc(Br)ccc3nc2-c2ccccc2)cc1`, the emission maximum is recorded as 555 nm (in C1COCCO1), 643 nm (in CC#N) and 601 nm (in ClCCl).
For the setting “in CC#N”, `Cc1cc(C)c2nc3c(=O)[nH]c(=O)[nH]c3nc2c1` returned an emission maximum of 461 nm.
With `c1ccc(-c2nnc(-c3ccc(-n4c5ccccc5c5ccccc54)cc3)o2)cc1`, the emission maximum (in CCO) is 440 nm and the emission maximum (in Cc1ccccc1) was found to be 387 nm.
Compound `O=C(O)COc1cccc(OCC(=O)O)c1-c1c2ccc(=[N+]3CCCCC3)cc-2oc2cc(N3CCCCC3)ccc12` registered an emission maximum (in CCO) of 580 nm and an emission maximum (in O) of 594 nm.
Turning to `Cc1cc2c(o1)=CC1=C(C(F)(F)F)c3cc4oc(C)cc4n3[B-](F)(F)[N+]=21`, under “in ClC(Cl)Cl”, the emission maximum was 620 nm.
`COc1ccc(-c2nc(-c3ccc(-c4nc(-c5ccc(OC)cc5)c(-c5ccc(OC)cc5)[nH]4)cc3)[nH]c2-c2ccc(OC)cc2)cc1`: where the note is “in CC#N”, the emission maximum is 416.5 nm and 440 nm.
Consider `F[B-]1(F)n2c(Oc3ccccc3)c(Cl)c(Br)c2C(Oc2ccccc2)=C2C(Br)=C(Cl)C(Oc3ccccc3)=[N+]21`, for which the emission maximum (in ClCCl) is 544 nm.
For `O=S(=O)([O-])c1cccc2c(O)cccc12`, for the setting “in O”, the emission maximum was 426 nm.
In the case of `O=c1c2cc(S(=O)(=O)O)ccc2[nH]c2ccc(S(=O)(=O)O)cc12`, the emission maximum is, setting by setting: (in CS(C)=O) 417 nm; (in O) 417 nm.
Regarding `CC(=O)Nc1ccc2c(c1)c(=O)c1ccccc1n2CCCCCC(=O)O`, the emission maximum (in O) was found to be 450 nm.
In turn, `Cc1ccc(N(c2ccccc2)c2ccc3ccc4c(N(c5ccccc5)c5ccc(C)cc5)ccc5ccc2c3c54)cc1` displayed an emission maximum (in ClCCl) of 484 nm.
Still for that read-out and setting: in the case of `c1ccc(-c2cc3cc4cccc5c(-c6ccccc6)cc6cc7cccc2c7c3c6c45)cc1` it was 442 nm.
Take `c1ccc(C[n+]2cc3ccc4c[n+](Cc5ccccc5)cc5ccc(c2)c3c45)cc1`: the emission maximum (in CC#N) is on record as 427 nm.
In turn, `CC(C)(C)C1CCC(=CS/C=C/c2ccc(/C=C/SC=C3CCC(C(C)(C)C)CC3)cc2)CC1` (centres undefined) returned an emission maximum (in ClCCl) of 422 nm.
With `COc1ccc(-c2nc3c([nH]2)=C2C=C(Cl)S[C@@]2(C)[C@]2(C)SC(Cl)=CC=32)cc1`, for the setting “in CC#N”, the emission maximum amounted to 378 nm.
